Source: publication PMC4076210, “Discovery of Novel AKT Inhibitors with Enhanced Anti-Tumor Effects in Combination with the MEK Inhibitor” (PLoS ONE, 2014)
Where two headings read alike, the source gives them in different places.

Assays:
BrSK1(h) = biological target: T1, BrSK1(h) (Homo sapiens, UniProt Q8TDC3); test: Kinase panel; assay type: biochemical
T1 construct: purchased Millipore KinaseProfiler
T1 sequence (Q8TDC3 1-778): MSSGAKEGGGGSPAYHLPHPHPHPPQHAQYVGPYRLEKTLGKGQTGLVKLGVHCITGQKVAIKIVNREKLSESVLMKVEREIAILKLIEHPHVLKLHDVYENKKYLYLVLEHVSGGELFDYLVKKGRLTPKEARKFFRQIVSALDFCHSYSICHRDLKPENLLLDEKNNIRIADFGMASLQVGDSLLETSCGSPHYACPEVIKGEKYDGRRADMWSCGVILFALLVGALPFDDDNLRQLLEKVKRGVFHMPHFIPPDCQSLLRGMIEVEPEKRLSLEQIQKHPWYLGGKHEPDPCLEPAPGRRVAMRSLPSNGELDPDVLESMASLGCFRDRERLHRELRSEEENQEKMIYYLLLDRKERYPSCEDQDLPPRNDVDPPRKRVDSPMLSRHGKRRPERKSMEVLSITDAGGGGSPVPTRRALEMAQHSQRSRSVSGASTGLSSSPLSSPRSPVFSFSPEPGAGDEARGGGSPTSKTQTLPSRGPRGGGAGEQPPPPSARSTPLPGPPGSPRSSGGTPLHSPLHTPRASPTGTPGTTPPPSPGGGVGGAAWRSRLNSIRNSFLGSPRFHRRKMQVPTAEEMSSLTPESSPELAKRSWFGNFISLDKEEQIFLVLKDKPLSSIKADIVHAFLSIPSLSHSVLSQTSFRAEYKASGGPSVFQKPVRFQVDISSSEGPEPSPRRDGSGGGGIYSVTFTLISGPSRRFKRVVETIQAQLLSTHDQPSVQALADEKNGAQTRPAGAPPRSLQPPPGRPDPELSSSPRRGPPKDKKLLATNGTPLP

TrkB(h) = biological target: T2, TrkB(h) (Homo sapiens, UniProt Q16620); test: Kinase panel; assay type: biochemical
T2 construct: purchased Millipore KinaseProfiler

PTK5(h) = biological target: T3, PTK5(h) (Homo sapiens, UniProt P42685); test: Kinase panel; assay type: biochemical
T3 construct: purchased Millipore KinaseProfiler

Fer(h) = biological target: T4, Fer(h) (Homo sapiens, UniProt P16591); test: Kinase panel; assay type: biochemical
T4 construct: purchased Millipore KinaseProfiler

GSK3β(h) = biological target: T5, GSK3β(h) (Homo sapiens, UniProt P49841); test: Kinase panel; assay type: biochemical
T5 construct: purchased Millipore KinaseProfiler

Ret(V804M)(h) = biological target: T6, Ret(V804M)(h) (Homo sapiens, UniProt P07949, V804M); test: Kinase panel; assay type: biochemical
T6 construct: purchased Millipore KinaseProfiler

AMPK(r) = test: Kinase panel; assay type: biochemical, rat
SIK(h) = biological target: T7, SIK(h) (Homo sapiens, UniProt P57059); test: Kinase panel; assay type: biochemical
T7 construct: purchased Millipore KinaseProfiler

EphB3(h) = biological target: T8, EphB3(h) (Homo sapiens, UniProt P54753); test: Kinase panel; assay type: biochemical
T8 construct: purchased Millipore KinaseProfiler
T8 sequence (P54753 34-998): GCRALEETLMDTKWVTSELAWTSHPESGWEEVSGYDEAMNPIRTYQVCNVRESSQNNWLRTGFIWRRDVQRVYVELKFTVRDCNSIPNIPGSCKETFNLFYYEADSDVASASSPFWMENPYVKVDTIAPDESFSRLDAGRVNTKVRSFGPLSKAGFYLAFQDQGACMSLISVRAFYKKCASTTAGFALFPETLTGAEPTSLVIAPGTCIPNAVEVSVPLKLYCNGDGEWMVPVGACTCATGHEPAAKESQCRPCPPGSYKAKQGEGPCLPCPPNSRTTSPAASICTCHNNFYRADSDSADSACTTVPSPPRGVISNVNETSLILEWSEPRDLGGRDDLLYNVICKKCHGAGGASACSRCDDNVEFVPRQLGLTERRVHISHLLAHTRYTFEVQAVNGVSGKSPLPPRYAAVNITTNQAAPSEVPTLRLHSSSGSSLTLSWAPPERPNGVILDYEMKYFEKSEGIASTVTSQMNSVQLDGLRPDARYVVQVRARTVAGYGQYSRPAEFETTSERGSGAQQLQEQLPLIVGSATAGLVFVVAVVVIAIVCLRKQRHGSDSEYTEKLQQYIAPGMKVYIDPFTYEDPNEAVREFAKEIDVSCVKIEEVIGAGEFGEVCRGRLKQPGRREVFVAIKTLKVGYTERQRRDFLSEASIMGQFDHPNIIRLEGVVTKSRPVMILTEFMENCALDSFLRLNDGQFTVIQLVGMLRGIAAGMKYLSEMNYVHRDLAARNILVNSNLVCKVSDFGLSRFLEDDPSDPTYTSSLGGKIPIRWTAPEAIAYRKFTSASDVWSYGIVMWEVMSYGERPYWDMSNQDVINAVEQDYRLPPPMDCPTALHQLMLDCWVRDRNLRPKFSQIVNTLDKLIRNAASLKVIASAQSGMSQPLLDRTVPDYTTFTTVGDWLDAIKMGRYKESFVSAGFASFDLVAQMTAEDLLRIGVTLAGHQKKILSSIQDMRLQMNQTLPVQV

PKCε = PKCε (Homo sapiens, UniProt Q02156); test: Kinase IC50 assay; assay type: biochemical
Pim-2(h) = biological target: T9, Pim-2(h) (Homo sapiens, UniProt Q9P1W9); test: Kinase panel; assay type: biochemical
T9 construct: purchased Millipore KinaseProfiler

IR(h) = biological target: T10, IR(h) (Homo sapiens, UniProt P06213); test: Kinase panel; assay type: biochemical
T10 construct: purchased Millipore KinaseProfiler

PAK6(h) = biological target: T11, PAK6(h) (Homo sapiens, UniProt Q9NQU5); test: Kinase panel; assay type: biochemical
T11 construct: purchased Millipore KinaseProfiler

Abl(m) = biological target: T12, Abl(m) (Mus musculus, UniProt P00520); test: Kinase panel; assay type: biochemical
T12 construct: purchased Millipore KinaseProfiler
T12 sequence (P00520 27-1123 limits assumed): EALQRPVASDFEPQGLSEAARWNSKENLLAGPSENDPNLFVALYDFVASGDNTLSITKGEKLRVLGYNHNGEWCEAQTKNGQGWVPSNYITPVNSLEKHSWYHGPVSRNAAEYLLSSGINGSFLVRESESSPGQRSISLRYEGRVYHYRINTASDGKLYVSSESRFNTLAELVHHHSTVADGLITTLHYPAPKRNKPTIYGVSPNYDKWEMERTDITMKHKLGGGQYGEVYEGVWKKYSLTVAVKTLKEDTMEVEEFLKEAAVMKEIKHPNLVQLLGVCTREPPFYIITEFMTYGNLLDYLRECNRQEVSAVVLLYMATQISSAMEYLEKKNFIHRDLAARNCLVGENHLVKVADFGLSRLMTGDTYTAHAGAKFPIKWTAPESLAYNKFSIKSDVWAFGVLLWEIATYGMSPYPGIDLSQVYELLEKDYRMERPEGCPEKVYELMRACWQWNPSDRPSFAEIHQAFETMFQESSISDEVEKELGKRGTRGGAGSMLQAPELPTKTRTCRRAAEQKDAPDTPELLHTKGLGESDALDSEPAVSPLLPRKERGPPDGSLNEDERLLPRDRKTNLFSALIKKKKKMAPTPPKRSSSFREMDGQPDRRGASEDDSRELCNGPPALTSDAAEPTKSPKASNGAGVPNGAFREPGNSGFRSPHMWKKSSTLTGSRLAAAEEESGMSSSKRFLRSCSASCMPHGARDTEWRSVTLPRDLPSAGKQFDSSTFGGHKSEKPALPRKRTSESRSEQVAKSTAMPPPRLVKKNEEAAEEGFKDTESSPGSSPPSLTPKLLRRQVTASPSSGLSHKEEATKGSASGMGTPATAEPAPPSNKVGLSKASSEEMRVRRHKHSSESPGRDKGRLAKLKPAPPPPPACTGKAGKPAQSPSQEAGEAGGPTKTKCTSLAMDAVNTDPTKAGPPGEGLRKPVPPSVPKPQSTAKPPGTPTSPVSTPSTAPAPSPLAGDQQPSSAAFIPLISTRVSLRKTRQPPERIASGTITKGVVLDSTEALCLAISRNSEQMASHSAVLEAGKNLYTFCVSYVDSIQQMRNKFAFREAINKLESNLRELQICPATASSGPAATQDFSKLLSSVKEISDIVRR

T6 sequence (P07949 29-1114 V804M): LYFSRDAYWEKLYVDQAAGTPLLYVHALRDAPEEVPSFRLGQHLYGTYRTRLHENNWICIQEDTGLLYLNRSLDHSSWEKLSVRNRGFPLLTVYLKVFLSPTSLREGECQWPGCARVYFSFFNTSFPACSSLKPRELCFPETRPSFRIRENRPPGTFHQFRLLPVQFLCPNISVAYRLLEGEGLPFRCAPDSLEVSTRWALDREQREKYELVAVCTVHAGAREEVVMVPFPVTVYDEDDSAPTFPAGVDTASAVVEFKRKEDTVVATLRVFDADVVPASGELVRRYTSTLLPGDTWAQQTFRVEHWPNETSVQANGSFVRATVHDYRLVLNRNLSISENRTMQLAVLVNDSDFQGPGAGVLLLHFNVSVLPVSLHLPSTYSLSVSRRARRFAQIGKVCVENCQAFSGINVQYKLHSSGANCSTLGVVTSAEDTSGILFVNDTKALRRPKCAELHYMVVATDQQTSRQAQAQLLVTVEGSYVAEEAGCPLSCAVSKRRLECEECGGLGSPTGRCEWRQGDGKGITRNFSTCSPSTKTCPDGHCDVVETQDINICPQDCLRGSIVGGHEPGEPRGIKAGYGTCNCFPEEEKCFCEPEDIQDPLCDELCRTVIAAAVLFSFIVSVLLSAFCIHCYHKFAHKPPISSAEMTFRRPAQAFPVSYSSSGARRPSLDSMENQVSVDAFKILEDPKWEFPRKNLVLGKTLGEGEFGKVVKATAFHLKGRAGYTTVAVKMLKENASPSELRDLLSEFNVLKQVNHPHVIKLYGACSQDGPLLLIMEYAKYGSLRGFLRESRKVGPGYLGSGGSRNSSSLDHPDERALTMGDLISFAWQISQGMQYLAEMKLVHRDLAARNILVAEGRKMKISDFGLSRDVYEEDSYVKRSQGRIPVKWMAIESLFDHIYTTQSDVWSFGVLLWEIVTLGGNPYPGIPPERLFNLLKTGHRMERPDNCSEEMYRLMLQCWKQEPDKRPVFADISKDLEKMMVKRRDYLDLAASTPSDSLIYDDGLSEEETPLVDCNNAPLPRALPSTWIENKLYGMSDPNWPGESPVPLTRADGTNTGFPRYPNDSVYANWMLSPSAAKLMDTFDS
T11 sequence (Q9NQU5 whole entry): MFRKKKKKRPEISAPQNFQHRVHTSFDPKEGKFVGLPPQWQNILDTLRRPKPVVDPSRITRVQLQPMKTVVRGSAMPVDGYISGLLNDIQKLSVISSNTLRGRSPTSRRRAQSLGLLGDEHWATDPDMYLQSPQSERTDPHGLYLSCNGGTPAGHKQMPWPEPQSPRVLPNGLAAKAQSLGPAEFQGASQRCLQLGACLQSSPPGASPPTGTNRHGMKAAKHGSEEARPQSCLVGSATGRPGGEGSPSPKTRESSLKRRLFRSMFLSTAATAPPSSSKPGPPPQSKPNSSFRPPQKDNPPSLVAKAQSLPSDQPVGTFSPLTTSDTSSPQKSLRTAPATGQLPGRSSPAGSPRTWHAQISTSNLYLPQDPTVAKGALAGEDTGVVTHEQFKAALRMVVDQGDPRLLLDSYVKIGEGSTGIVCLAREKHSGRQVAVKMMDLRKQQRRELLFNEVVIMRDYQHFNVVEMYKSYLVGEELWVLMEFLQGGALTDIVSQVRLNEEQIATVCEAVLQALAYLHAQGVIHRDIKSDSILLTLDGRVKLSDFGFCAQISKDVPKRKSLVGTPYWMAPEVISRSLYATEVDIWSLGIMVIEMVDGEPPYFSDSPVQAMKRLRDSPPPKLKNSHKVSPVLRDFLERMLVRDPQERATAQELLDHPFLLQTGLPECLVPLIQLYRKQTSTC
T10 sequence (P06213 28-1382): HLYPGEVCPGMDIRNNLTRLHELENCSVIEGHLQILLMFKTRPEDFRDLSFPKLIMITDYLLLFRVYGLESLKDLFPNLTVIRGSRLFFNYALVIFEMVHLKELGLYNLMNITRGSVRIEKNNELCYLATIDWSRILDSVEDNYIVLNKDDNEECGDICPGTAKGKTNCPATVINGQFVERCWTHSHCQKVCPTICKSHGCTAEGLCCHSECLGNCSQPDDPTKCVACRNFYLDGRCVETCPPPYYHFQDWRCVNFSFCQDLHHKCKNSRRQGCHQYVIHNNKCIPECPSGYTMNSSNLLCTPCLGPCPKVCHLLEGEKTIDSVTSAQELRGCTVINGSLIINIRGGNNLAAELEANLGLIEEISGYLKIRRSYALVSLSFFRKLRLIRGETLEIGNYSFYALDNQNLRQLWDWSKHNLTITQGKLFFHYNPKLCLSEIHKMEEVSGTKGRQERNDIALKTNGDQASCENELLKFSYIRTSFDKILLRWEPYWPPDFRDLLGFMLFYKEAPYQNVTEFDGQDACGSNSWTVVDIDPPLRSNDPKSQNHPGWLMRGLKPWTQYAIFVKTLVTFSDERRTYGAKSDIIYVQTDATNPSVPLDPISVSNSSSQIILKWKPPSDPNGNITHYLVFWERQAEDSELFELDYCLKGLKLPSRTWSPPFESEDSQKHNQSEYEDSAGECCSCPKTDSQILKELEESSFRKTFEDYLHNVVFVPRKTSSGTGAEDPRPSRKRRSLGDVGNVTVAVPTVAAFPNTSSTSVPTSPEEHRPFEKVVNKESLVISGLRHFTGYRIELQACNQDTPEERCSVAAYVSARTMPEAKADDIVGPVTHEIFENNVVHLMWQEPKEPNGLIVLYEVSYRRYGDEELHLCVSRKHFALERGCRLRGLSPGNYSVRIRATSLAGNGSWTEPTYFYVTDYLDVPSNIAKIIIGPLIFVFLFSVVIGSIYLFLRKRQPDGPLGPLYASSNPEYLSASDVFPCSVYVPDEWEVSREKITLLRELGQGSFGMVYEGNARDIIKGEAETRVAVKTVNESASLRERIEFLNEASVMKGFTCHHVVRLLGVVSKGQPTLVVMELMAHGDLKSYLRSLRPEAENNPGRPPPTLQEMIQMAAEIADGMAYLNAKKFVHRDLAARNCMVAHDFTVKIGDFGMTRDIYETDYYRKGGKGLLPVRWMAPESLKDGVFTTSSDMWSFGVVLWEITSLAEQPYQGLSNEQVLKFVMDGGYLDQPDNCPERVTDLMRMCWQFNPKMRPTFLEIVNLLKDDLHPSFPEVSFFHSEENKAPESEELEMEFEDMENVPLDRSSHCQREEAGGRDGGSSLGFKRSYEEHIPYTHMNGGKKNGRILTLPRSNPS
T3 sequence (P42685 whole entry): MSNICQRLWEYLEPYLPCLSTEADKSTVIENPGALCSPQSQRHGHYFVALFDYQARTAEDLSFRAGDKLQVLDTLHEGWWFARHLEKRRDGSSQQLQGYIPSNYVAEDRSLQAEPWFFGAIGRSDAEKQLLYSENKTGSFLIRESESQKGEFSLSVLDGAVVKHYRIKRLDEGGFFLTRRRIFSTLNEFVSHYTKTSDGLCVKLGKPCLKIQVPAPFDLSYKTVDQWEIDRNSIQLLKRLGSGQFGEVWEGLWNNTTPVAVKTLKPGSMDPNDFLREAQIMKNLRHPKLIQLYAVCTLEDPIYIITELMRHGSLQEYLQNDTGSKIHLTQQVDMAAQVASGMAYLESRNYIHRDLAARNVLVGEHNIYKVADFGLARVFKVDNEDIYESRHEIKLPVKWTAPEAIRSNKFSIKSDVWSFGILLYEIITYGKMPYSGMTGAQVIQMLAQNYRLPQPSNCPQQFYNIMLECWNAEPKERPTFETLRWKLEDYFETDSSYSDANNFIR
T9 sequence (Q9P1W9 whole entry): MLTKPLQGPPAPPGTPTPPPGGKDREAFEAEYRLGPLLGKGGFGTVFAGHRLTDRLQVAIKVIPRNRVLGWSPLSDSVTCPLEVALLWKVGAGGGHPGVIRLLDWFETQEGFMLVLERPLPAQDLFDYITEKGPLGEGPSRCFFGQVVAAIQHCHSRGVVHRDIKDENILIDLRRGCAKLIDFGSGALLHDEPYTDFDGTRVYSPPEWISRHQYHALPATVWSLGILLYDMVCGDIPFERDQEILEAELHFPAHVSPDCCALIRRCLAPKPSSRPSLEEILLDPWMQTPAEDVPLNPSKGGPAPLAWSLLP

Cn1ncc(Cl)c1-c1cc(C(=O)N[C@H](CN)Cc2ccc(F)c(F)c2)oc1Cl [GSK2141795]
inhibition at 0.5 µM (BrSK1(h); 0.5 µM, read-out: % Inhibition): -2%
inhibition at 10 µM (BrSK1(h); 10 µM, read-out: % Inhibition): 7%
inhibition at 0.5 µM (TrkB(h); 0.5 µM, read-out: % Inhibition): 27%
inhibition at 10 µM (TrkB(h); 10 µM, read-out: % Inhibition): 85%
inhibition at 0.5 µM (PTK5(h); 0.5 µM, read-out: % Inhibition): 11%
inhibition at 10 µM (PTK5(h); 10 µM, read-out: % Inhibition): 70%
inhibition at 0.5 µM (Fer(h); 0.5 µM, read-out: % Inhibition): 1%
inhibition at 10 µM (Fer(h); 10 µM, read-out: % Inhibition): -4%
inhibition at 0.5 µM (GSK3β(h); 0.5 µM, read-out: % Inhibition): -8%
inhibition at 10 µM (GSK3β(h); 10 µM, read-out: % Inhibition): -13%
inhibition at 0.5 µM (Ret(V804M)(h); 0.5 µM, read-out: % Inhibition): -2%
inhibition at 10 µM (Ret(V804M)(h); 10 µM, read-out: % Inhibition): 25%
% Inhibition (AMPK(r); 0.5 µM): 10%
% Inhibition (AMPK(r); 10 µM): 76%
inhibition at 0.5 µM (SIK(h); 0.5 µM, read-out: % Inhibition): -4%
inhibition at 10 µM (SIK(h); 10 µM, read-out: % Inhibition): 64%
inhibition at 0.5 µM (EphB3(h); 0.5 µM, read-out: % Inhibition): -2%
inhibition at 10 µM (EphB3(h); 10 µM, read-out: % Inhibition): 9%
IC50 (PKCε): > 1000 nM
inhibition at 0.5 µM (Pim-2(h); 0.5 µM, read-out: % Inhibition): -7%
inhibition at 10 µM (Pim-2(h); 10 µM, read-out: % Inhibition): 9%
inhibition at 0.5 µM (IR(h); 0.5 µM, read-out: % Inhibition): -8%
inhibition at 10 µM (IR(h); 10 µM, read-out: % Inhibition): 41%
inhibition at 0.5 µM (PAK6(h); 0.5 µM, read-out: % Inhibition): 11%
inhibition at 10 µM (PAK6(h); 10 µM, read-out: % Inhibition): 64%
inhibition at 0.5 µM (Abl(m); 0.5 µM, read-out: % Inhibition): 1%
inhibition at 10 µM (Abl(m); 10 µM, read-out: % Inhibition): 7%

Cn1ncc(Cl)c1-c1cc(C(=O)N[C@H](CN)Cc2cccc(F)c2)sc1Cl [GSK2110183]
inhibition at 0.5 µM (BrSK1(h)): -3%
inhibition at 10 µM (BrSK1(h)): 10%
inhibition at 0.5 µM (TrkB(h)): 15%
inhibition at 10 µM (TrkB(h)): 74%
inhibition at 0.5 µM (PTK5(h)): 4%
inhibition at 10 µM (PTK5(h)): 18%
inhibition at 0.5 µM (Fer(h)): -8%
inhibition at 10 µM (Fer(h)): 16%
inhibition at 0.5 µM (GSK3β(h)): 4%
inhibition at 10 µM (GSK3β(h)): 5%
inhibition at 0.5 µM (Ret(V804M)(h)): 5%
inhibition at 10 µM (Ret(V804M)(h)): 26%
% Inhibition (AMPK(r); 0.5 µM): 3%
% Inhibition (AMPK(r); 10 µM): 56%
inhibition at 0.5 µM (SIK(h)): -6%
inhibition at 10 µM (SIK(h)): 16%
inhibition at 0.5 µM (EphB3(h)): 12%
inhibition at 10 µM (EphB3(h)): -9%
IC50 (PKCε): > 1000 nM
inhibition at 0.5 µM (Pim-2(h)): 5%
inhibition at 10 µM (Pim-2(h)): 35%
inhibition at 0.5 µM (IR(h)): 35%
inhibition at 10 µM (IR(h)): 32%
inhibition at 0.5 µM (PAK6(h)): 13%
inhibition at 10 µM (PAK6(h)): 73%
inhibition at 0.5 µM (Abl(m)): 8%
inhibition at 10 µM (Abl(m)): -5%
